Patent US6114517A, “Methods of modulating tumor necrosis factor α-induced expression of cell adhesion molecules” (Isis Pharmaceuticals Inc., priority 1998, dated 2000)
pIC50: −log10 of the molar value.

Key:
c-raf mRNA = c-raf mRNA levels by Northern blot in HMVEC; assay type: cell-based, human
Procedure: Human dermal microvascular cells (HMVEC-d; Clonetics, San Diego, Calif.) were cultivated in endothelial basal media (EBM, Clonetics) supplemented with 10% fetal bovine serum (HyClone, Logan, Utah). Cells were grown in 100 mm petri dishes until 70-80% confluent, then washed with PBS and OPTI-MEM (Life Technologies, Inc., Gaithersburg, Md.). The cells were then incubated in the presence of OPTI-MEM and […] LIPOFECTIN (a 1:1 (w/w) liposome formulation of the cationic lipid N-[1-(2,3-dioleyloxy)propyl]-n,n,n-trimethylammonium chloride (DOTMA), and dioleoyl phosphotidylethanolamine (DOPE) in membrane filtered water (Life Technologies, Gaithersburg, Md.), per 100 nM of oligonucleotide followed by addition of oligonucleotide at the appropriate concentrations.
For determination of mRNA levels by Northern blot, total RNA was prepared from cells by the guanidinium isothiocyanate procedure or by the Qiagen RNAEASY method (Qiagen, Santa Clarita, Calif.) at the indicated times after initiation of oligonucleotide treatment. Northern blot analysis was performed as described in Current Protocols in Molecular Biology (Ausubel, F. M., et al., (eds), 1987, Greene Publishing Assoc. and Wiley Interscience, New York). A glyceraldehyde 3-phosphate dehydrogenase (G3PDH) probe was purchased from Clontech (Palo Alto, Calif., Catalog Number 9805-1). RNA was quantified and normalized to G3PDH mRNA levels using a Molecular Dynamic PHOSPHORIMAGER (Sunnyvale, Calif.).
(§1) ISIS 12854 (SEQ ID NO. 2) is a 2'-O-methoxyethyl mixed backbone chimeric antisense oligonucleotide designed to hybridize with 3'-untranslated sequences contained within human c-raf mRNA. To determine whether this antisense oligonucleotide is effective as a c-raf inhibitor in endothelial cells, human dermal microvascular cells (HMVEC) were treated with ISIS 12854 (SEQ ID NO. 2) as described in Example 2. C-raf mRNA and protein expression was examined by northern and Western blot analysis. The c-raf cDNA probe was generated from the plasmid, p627 (American Type Culture Collection, Manassas, Va.; catalog #41050), following the supplied instructions. The c-raf antibody was obtained from Transduction Laboratories, Inc. (Lexington, Ky.).

c-raf protein = c-raf protein levels by Western blot in HMVEC; assay type: cell-based, human
Procedure: For determination of protein levels by Western blot, cellular extracts were prepared using […] of RIPA extraction buffer per 100-mm dish. The protein concentration was quantified by Bradford assay using the BioRad kit (BioRad, Hercules, Calif.). Equal amounts of protein were loaded on 10% or 12% SDS-PAGE mini-gel (Novex, San Diego, Calif.). Once transferred to PVDF membranes (Millipore, Bedford, Mass.), the membranes were then treated for a minimum of 2 hours with specific primary antibody followed by incubation with secondary antibody conjugated to HRP. The results were visualized by Enhanced Chemiluminescent (ECL) detection (New England BioLab, Beverly, Mass.). In some experiments, the blots were stripped in stripping buffer (2% SDS, 12.5 mM Tris, pH 6.8) for 30 minutes at 50° C. After extensive washing, the blots were blocked and blotted with different primary antibody.
as §1

pIC50 (c-raf mRNA; read-out: IC50 for c-raf mRNA reduction): ~8.60
Substance: ToCoCoCoGoCsCsTsGsTsGsAsCsAsToGoCoAoToT [ISIS 12854]
% mRNA Expression (c-raf) (c-raf mRNA; 0.5 nM): 67%
% mRNA Inhibition (c-raf) (c-raf mRNA; 0.5 nM): 33%
% mRNA Expression (c-raf) (c-raf mRNA; 2.5 nM): 31%
% mRNA Inhibition (c-raf) (c-raf mRNA; 2.5 nM): 69%
% mRNA Expression (c-raf) (c-raf mRNA; 10 nM): 15%
% mRNA Inhibition (c-raf) (c-raf mRNA; 10 nM): 85%
% mRNA Expression (c-raf) (c-raf mRNA; 50 nM): 10%
% mRNA Inhibition (c-raf) (c-raf mRNA; 50 nM): 90%
% mRNA Expression (c-raf) (c-raf mRNA; 100 nM): 13%
% mRNA Inhibition (c-raf) (c-raf mRNA; 100 nM): 87%
% mRNA Expression (c-raf) (c-raf mRNA; 200 nM): 3%
% mRNA Inhibition (c-raf) (c-raf mRNA; 200 nM): 97%
time of maximal reduction of c-raf protein levels (c-raf protein; after treatment with 150 nM oligonucleotide): 48 h
time at which reduction in c-raf protein expression was first detectable (c-raf protein; after treatment, Western blot): 24 h
persistence of reduction of c-raf protein levels (c-raf protein; following initial treatment): up to 72 hour
